Key:
[1] = target: T1, Indoleamine 2,3-dioxygenase 1 (Homo sapiens, UniProt P14902); assay: Inhibition of recombinant human IDO1 expressed in Escherichia coli EC538 assessed as reduction in N-formylkynurenine formation using L-tryptophan as substrate incubated for 30 mins by methylene blue reagent based concurrent assay
[2] = target: T2, Tryptophan 2,3-dioxygenase (Homo sapiens, UniProt P48775); assay: Inhibition of recombinant human TDO2 expressed in Escherichia coli BL21 (DE3) assessed as reduction in N-formylkynurenine formation using L-tryptophan as substrate incubated for 30 mins by methylene blue reagent based concurrent assay
T2 sequence (P48775 whole entry): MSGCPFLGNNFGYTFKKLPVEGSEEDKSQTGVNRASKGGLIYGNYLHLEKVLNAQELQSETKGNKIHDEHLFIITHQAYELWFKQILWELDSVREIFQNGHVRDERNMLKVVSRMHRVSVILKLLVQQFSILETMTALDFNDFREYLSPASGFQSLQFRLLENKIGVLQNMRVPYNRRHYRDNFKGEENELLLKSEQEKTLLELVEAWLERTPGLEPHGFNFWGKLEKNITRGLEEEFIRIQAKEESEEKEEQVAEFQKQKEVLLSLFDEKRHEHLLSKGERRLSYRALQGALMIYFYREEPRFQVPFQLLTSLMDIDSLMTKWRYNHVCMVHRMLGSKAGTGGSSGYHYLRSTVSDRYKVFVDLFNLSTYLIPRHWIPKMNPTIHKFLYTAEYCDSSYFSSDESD

[3] = target: T1, Indoleamine 2,3-dioxygenase 1; assay: Inhibition of recombinant human IDO1 expressed in Escherichia coli EC538 assessed as reduction in N-formylkynurenine formation using L-tryptophan as substrate incubated for 30 mins by methylene blue reagent based assay
[4] = target: Tryptophan 2,3-dioxygenase (Rattus norvegicus, UniProt P21643); assay: Inhibition of TDO2 in rat liver homogenate assessed as reduction in N-formylkynurenine formation using L-tryptophan as substrate incubated for 1 hr; format: tissue-based
Tryptophan 2,3-dioxygenase (Rattus norvegicus, UniProt P21643), sequence (P21643 whole entry): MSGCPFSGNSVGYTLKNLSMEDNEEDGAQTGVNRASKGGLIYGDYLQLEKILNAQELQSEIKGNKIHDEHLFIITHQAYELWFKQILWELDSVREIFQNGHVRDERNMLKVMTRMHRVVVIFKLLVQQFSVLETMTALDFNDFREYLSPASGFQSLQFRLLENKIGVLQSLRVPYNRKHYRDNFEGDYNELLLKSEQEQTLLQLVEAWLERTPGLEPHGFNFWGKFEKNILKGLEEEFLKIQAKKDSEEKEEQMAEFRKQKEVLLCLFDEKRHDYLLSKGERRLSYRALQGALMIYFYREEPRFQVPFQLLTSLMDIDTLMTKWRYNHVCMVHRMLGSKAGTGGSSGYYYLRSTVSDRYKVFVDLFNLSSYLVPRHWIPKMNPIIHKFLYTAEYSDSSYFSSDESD

[5] = target: T2, Tryptophan 2,3-dioxygenase; assay: Inhibition of recombinant human TDO2 expressed in Escherichia coli BL21 (DE3) assessed as reduction in N-formylkynurenine formation using L-tryptophan as substrate incubated for 30 mins by methylene blue reagent based assay

T1 sequence (P14902 whole entry): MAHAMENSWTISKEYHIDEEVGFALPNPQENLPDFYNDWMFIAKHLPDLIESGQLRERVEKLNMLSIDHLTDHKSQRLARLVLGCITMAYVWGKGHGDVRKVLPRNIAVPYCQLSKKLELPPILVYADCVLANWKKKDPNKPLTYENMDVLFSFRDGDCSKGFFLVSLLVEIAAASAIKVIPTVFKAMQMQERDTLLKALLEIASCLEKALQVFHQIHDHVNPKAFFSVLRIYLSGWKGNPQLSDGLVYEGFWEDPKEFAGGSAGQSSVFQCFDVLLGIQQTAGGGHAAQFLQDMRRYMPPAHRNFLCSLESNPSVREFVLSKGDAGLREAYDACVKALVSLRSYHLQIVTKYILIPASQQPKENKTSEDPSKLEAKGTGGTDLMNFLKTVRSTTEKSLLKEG

Row | SMILES | IC50 [1] [µM] | IC50 [2] [µM] | IC50 [3] [µM] | IC50 [4] [nM] | IC50 [5] [nM]
1 | Oc1ccccc1-c1nc2c3ccccc3c3ccccc3c2[nH]1 | 11.8 | 12.3 |  |  | 
2 | O=[N+]([O-])c1cc(F)c2cccnc2c1O | 14.6 | 30.2 |  |  | 
3 | O=Cc1ccc(O)c2ncccc12 | 4.37 | > 100 |  |  | 
4 | CC1Oc2cc3c(-c4c(O)cc(O)c5c(O)c6c(cc45)OC(C)C(C)C6=O)c(O)cc(O)c3c(O)c2C(=O)C1C (centres undefined) | 44.1 | 48.6 |  |  | 
5 | COCCn1c2nc(=O)n(-c3ccccc3)c(=O)c-2nc2ccccc21 | 23.8 | 33.7 |  |  | 
6 | O=[N+]([O-])/C=C/c1cc2ccccc2[nH]1 | 2.79 | > 100 |  |  | 
7 | Cc1cc(=O)n2c3c(c4c(cc13)c(CN(C)C)cc(=O)n4C)OC2 | 27 | 17.6 |  |  | 
8 | O=[N+]([O-])c1cc([N+](=O)[O-])c2cccnc2c1O | 11.1 | 22.7 |  |  | 
9 | O=S(=O)(/N=C/c1c(O)ccc2ccccc12)c1cccs1 | 1.39 | 11.3 |  |  | 
10 | Fc1ccc2c(/C=C/c3cccnc3)c[nH]c2c1 | 478 |  | 350 | 50 | 
11 | O=C1c2ccccc2C2=C3C(O)=NN=C3CCN12 | 1.72 | 4.35 |  |  | 
12 | Nc1nonc1C(=NO)Nc1ccc(F)c(Cl)c1 |  | 3.62 |  |  | 3470
13 | CC1=C(O)C(=O)C=C2C1=CC=C1[C@@]2(C)CC[C@@]2(C)[C@@H]3C[C@](C)(C(=O)O)CC[C@]3(C)CC[C@]12C [CELASTROL] | 8.41 | > 100 |  |  | 
14 | NS(=O)(=O)NCCNc1nonc1C(=NO)Nc1ccc(F)c(Br)c1 [EPACADOSTAT] |  | 3.43 |  |  | 2120
